The text below walks through data of PMC7465886, “4-(N-Alkyl- and -Acyl-amino)-1,2,4-triazole-3-thione Analogs as Metallo-β-Lactamase Inhibitors: Impact of 4-Linker on Potency and Spectrum of Inhibition” (Biomolecules, 2020).

The target in one test is T1, VIM-1 (Pseudomonas aeruginosa, UniProt A0A0F7KYQ8).
T1 construct: made in house; host or cells: E. coli BL21(DE3) derivative, pET-9a
Put plainly: MBL inhibition, reporter substrate method, VIM-1. The conditions noted are these: read-out: Inhibition of VIM-1 (dash). Format: biochemical. As to the method: (§1) Compounds were prepared in DMSO at a final concentration of 50 mM prior to dilution in the assay buffer. The reaction rate was measured as the variation of absorbance observed upon substrate hydrolysis in a UV-Vis spectrophotometer or microplate reader at a wavelength of 300 nm (imipenem, meropenem), 260 nm (cefotaxime), or 482 nm (nitrocefin) and in the presence of a purified MBL enzyme (such as VIM-1, VIM-2, VIM-4, NDM-1, and IMP-1, at a final concentration ranging from 1 to 70 nM).
(§2) These enzymes were overproduced in derivatives of E. coli BL21(DE3) carrying a pET-9 a (IMP-1, VIM-1, VIM-2, and VIM-4) or pET-15 b (NDM-1) vector into which the metallo-β-lactamase-encoding open reading frame was cloned. Bacterial strains were grown in the auto-inducing medium, ZYP-5052, supplemented with 50 μg/mL kanamycin for 24 h at 37 °C [38]. IMP-1, VIM-1, VIM-2, and VIM-4 were purified by ion-exchange and gel filtration chromatography using an AKTA Purifier platform (GE Healthcare, Uppsala, Sweden) as previously described. NDM-1 (residues 37-270) was produced as an amino-terminal 6 xHis-tag fusion protein and was purified using affinity chromatography. After growth for 26 h at 25 °C, bacterial cells were harvested by centrifugation (10,000× g, 30 min, 4 °C), resuspended in 10 mM HEPES buffer (pH 7.5) containing 0.15 M NaCl (buffer A) in one-fifth of the original culture volume, and lysed by sonication. Cellular debris was removed by centrifugation (12,000× g, 40 min, 4 °C). The clarified sample was loaded on a HisTrap HP column (bed volume, 5 mL; GE Healthcare), followed by a wash step (25 mL) with buffer A containing 20 mM imidazole. Proteins were eluted using buffer A containing 350 mM imidazole. The resulting protein sample was desalted (HiPrep 26/10 Desalting column, GE Healthcare) using 20 mM triethanolamine (pH 7.2) supplemented with 50 μM ZnSO4 and concentrated using an Amicon Ultra-15 (MW cut-off, 10 kDa; Millipore, Burlington, MA, USA). The concentrated sample was loaded on a Superdex 75 prep grade column (XK16/100 column; bed volume, 140 mL; GE Healthcare) and the proteins eluted with buffer A containing 50 μM ZnSO4. The active fractions were pooled and stored at −20 °C. The purity of the protein preparations was estimated >95% by SDS-PAGE analysis. The authenticity of the enzyme preparations was confirmed by electron spray ionization mass spectrometry, as previously described.
(§3) The inhibition constants (Ki) were determined on the basis of a model of competitive inhibition by analyzing the dependence of the ratio v0/vi (v0, hydrolysis velocity in the absence of inhibitor; vi, hydrolysis velocity in the presence of inhibitor) as a function of [I] as already described. The slope of the plot of v0/vi vs. [I], which corresponds to Km^S/(Km^S + [S])Ki (where Km^S is the Km value of the reporter substrate and [S] its concentration in the reaction mixture) and allowed the calculation of the Ki value. Alternatively, a Dixon plot analysis was carried out by measuring the initial hydrolysis rates in the presence of variable concentrations of inhibitor and substrate. This allowed Ki values to be determined and supported the hypothesis that the various compounds behaved as competitive inhibitors of the various tested enzymes. The assays were performed in triplicate.

The subject of test [1] is E. coli LZ2310(pLBII-VIM-2). Kind of test: microbe, parasite or virus in culture. Format: cell-based, Escherichia coli. Here is the method:
The potential activity of selected compounds was assessed by the agar disk-diffusion method, according to the CLSI (Clinical Laboratory Standard Institute) recommendations, using Mueller–Hinton medium. The inhibitor (dissolved in DMSO) was added (maximum volume of 15 μL) to a commercially available disk containing a defined amount of a β-lactam antibiotic (30 μg of cefoxitin (Oxoid, Milan, Italy)). After incubation (18 h at 35 °C), the diameter of the growth inhibition zone was measured and compared to that obtained in the absence of inhibitor. DMSO and EDTA (220 μg) were used as negative and positive controls, respectively. Experiments were performed in triplicate.
These tests were performed on an isogenic laboratory strain obtained after transforming Escherichia coli LZ2310 strain with a derivative of the high copy number plasmid pLB-II carrying the cloned blaVIM-2 gene harboring a cloned gene encoding the functional metallo-β-lactamase. Strain LZ2310 is a triple knockout mutant derived from K12 in which the genes encoding for components of the three major efflux pump systems were inactivated (genotype, ∆norE ∆mdfA N43 acrA1) and was used to generate an hyperpermeable background for MBL production and investigate the potential contribution of such mechanisms to inhibitor efflux.

The target of the next test is T2, VIM-4 (Pseudomonas aeruginosa, UniProt A0A0F7KYQ8, S205R).
T2 construct: made in house; host or cells: E. coli BL21(DE3) derivative, pET-9a
Put plainly: MBL inhibition, reporter substrate method, VIM-4. Format: biochemical. The conditions noted are these: read-out: Inhibition of VIM-4 (dash). Here is the method: as §1, §2, §3

The next test concerns the target T3, CphA (Aeromonas hydrophila, UniProt P26918).
T3 construct: made in house
Put plainly: MBL inhibition, CphA (imipenem hydrolysis). Format: biochemical. Conditions: read-out: Percentage of Inhibition at 100 μM Inhibitor, CphA. Here is the method: Compounds were prepared as 10 mM solutions in DMSO before dilution with appropriate buffers. Buffers were 25 mM Hepes pH 7.5 for CphA or 25 mM Hepes pH 7.5, 50 µM ZnCl2 for L1. The rates in the absence of inhibitor were not modified by addition of 1% DMSO. CphA and L1 enzymes, purified as previously described, were used at concentrations between 0.2 and 0.8 nM, respectively. The enzyme and the inhibitor (100 µM) were pre-incubated for 30 min in a volume of 495 µL at room temperature. The hydrolysis of a solution of 100 µM imipenem for CphA was monitored by following the absorbance variation at 300 nm using a Specord 50 PLUS spectrophotometer (Analytik Jena, Jena, Germany). For L1, the reporter substrate was nitrocefin (100 µM). The enzyme activity was measured by following the absorbance variation at 482 nm. The substrate hydrolysis was done at 30 °C. The activity was tested by measuring the initial rates in three samples without inhibitor that allowed to determine the percentage of residual β-lactamase activity in the presence of inhibitors. […] The Hanes linearization of the Henri–Michaelis equation was used, and Ki was calculated on the basis of the following equation, v = (Vmax.S)/[S + Km(1 + I/Ki)]. […]

In a further test the target is T4, VIM-2 (Escherichia coli, UniProt Q5U7L7).
T4 construct: made in house; host or cells: E. coli BL21(DE3) derivative, pET-9a
Kind of test: MBL inhibition, reporter substrate method, VIM-2. Format: biochemical. The conditions noted are these: hydrazine and hydrazide series; read-out: Ki Value VIM-2. Here is the method:
as §1, §2, §3

Where [2] appears, read: Escherichia coli, read-out: Inhibition Zone Diameter.

The structures appear in SMILES notation.

The term inhibition denotes the drop in the measured response relative to a control, in per cent. By Ki is commonly meant a dissociation constant, usually derived from enzyme kinetics or from competition with a known ligand.

T3 sequence (P26918 28-254): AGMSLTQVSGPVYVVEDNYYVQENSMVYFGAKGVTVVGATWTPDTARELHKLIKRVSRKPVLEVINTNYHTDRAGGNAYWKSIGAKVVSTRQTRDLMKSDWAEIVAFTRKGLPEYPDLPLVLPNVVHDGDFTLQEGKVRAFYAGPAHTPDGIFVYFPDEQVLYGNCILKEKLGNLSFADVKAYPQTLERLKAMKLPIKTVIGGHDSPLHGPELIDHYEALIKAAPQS

For the compound `O=C(O)c1ccccc1CNn1c(-c2ccccc2)n[nH]c1=S` [Compound 1], the inhibition at 100 µM on VIM-1 was below 30%. Further, the “Restoration of cefoxitin activity (in words)” value in test [1] (30 μg cefoxitin disk, compound 1 at 48 μg, EUCAST clinical breakpoints) is given as “able to restore cefoxitin susceptibility”. In addition, in test [1] (setting [2]), the zone of inhibition at 16 µg/disc was determined as 13 mm, the zone of inhibition at 32 µg/disc was found to be 16 mm and the zone of inhibition at 48 µg/disc was 20 mm. Moreover, the inhibition at 100 µM on VIM-4 is below 30%. Besides, the inhibition at 100 µM at CphA turned out to be 60%. In addition, the inhibition constant (Ki) on VIM-2 is 1.4 µM.
